Tests used:
Aurora-B = Aurora-B (Homo sapiens, UniProt Q96GD4); assay: Aurora-B enzyme assay (identical protocol as Aurora-A); assay type: biochemical; conditions: IC50 range class; read-out: Inhibitor Activity vs Aurora-B
Protocol: The ability of compounds to inhibit Aurora-A activity was measured using a simple microplate assay for Aurora-A activity, also suitable for high-throughput screening. In brief, γ-^33P-ATP and Aurora-A were incubated in a myelin basic protein (MBP)-coated Flashplate® to generate a scintillation signal. The plates were formatted to contain the inhibitor, controls, positive control (staurosporin) and blanks. After incubation at 37° C. for 1 hour and a subsequent wash procedure, the plates were read on a TopCount-NXT™.
IC50 values were determined by non-linear regression analysis, after fitting the data point results to the equation for sigmoidal dose response with variable slope (% activity against log concentration of compound), using Graphpad Prism software.
The Aurora-B enzyme assay follows the identical protocol as Aurora-A.

U937 cell line = assay: Cell inhibition assay (SRB cell viability), U937; assay type: cell-based; conditions: Homo sapiens, U-937, IC50 range class, 72 h, read-out: Inhibitor Activity vs U937 cell line
Protocol: (§1) The corresponding cancer cell lines (U937, HCT 116 and HUT) growing in log phase were harvested and seeded at 1000 cells/well (200 ul final volume) into 96-well tissue culture plates. Following 24 h of cell growth cells were treated with compounds (final concentration of 20 uM). Plates were then re-incubated for a further 72 h before a sulphorhodamine B (SRB) cell viability assay was conducted according to Skehan 1990 J Natl Canc Inst 82, 1107-1112.
(§2) Data were expressed as a percentage inhibition of the control, measured in the absence of inhibitor, as follows: — % inhibition=100−((S^i/S^o)×100) where S^i is the signal in the presence of inhibitor and S^o is the signal in the presence of DMSO.
(§3) IC50 values were determined by non-linear regression analysis, after fitting the results of eight data points to the equation for sigmoidal dose response with variable slope (% activity against log concentration of compound), using Graphpad Prism software.

HCT 116 cell line = assay: Cell inhibition assay (SRB cell viability), HCT 116; assay type: cell-based; conditions: Homo sapiens, IC50 range class, 72 h, read-out: Inhibitor Activity vs HCT 116 cell line
Protocol: as §1, §2, §3

HUT cell line = assay: Cell inhibition assay (SRB cell viability), HUT; assay type: cell-based; conditions: IC50 range class, 72 h, read-out: Inhibitor Activity vs HUT cell line
Protocol: as §1, §2, §3

Chain of Aurora-B (Q96GD4 whole entry): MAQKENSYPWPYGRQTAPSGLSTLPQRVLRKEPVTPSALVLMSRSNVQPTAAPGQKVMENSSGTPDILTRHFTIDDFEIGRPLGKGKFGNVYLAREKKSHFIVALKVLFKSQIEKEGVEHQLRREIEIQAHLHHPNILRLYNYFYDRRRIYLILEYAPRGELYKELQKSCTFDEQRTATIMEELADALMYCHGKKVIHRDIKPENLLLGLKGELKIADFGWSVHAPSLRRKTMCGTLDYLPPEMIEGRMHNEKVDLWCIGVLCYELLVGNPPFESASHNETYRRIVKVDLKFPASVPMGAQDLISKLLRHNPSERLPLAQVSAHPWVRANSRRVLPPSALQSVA

| IC50 (Aurora-B) [µM] | IC50 (U937 cell line) [µM] | IC50 (HCT 116 cell line) [µM] | SMILES | IC50 (HUT cell line) [µM] |
| --- | --- | --- | --- | --- |
| 2 to 5 | < 1 | < 1 | COc1cc2c(Oc3ccc(NC(=O)c4ccccc4)cc3)ccnc2cc1OCC[C@H](NC(C)=O)C(=O)OC1CCCC1 [Example 42, (S)-2-Acetylamino-4-[4-(4-benzoylamino-phenoxy)-6-methoxy-quinolin-7-yloxy]-butyric acid cyclopentyl ester] | < 1 |
| < 2 |  |  | COc1cc2c(Oc3ccc(NC(=O)c4cccc(F)c4)cc3)ccnc2cc1OCC[C@H](N)C(=O)O [Example 56, (S)-2-Amino-4-{4-[4-(3-fluoro-benzoylamino)-phenoxy]-6-methoxy-quinolin-7-yloxy}-butyric acid] |  |
| 2 to 5 | < 1 | 1 to 5 | COc1ccc(C(=O)Nc2ccc(Oc3ccnc4cc(OCC[C@H](N)C(=O)OC5CCCC5)c(OC)cc34)cc2)cc1 [Example 57, (S)-2-Amino-4-{6-methoxy-4-[4-(4-methoxy-benzoylamino)-phenoxy]-quinolin-7-yloxy}-butyric acid cyclopentyl ester] | 1 to 5 |
| > 5 | < 1 | 1 to 5 | COc1cc2c(Oc3ccc(NC(=O)C4CC4)cc3)ccnc2cc1OCC[C@H](N)C(=O)OC1CCCC1 [Example 59, (S)-2-Amino-4-{4-[4-(cyclopropanecarbonyl-amino)-phenoxy]-6-methoxy-quinolin-7-yloxy}-butyric acid cyclopentyl ester] | 1 to 5 |
| < 2 | < 1 | < 1 | COc1cc2c(Oc3ccc(NC(=O)c4ccc(C(F)(F)F)cc4)cc3)ccnc2cc1OCC[C@H](N)C(=O)OC1CCCC1 [Example 53, (S)-2-Amino-4-{6-methoxy-4-[4-(4-trifluoromethyl-benzoylamino)-phenoxy]-quinolin-7-yloxy}-butyric acid cyclopentyl ester] | < 1 |
| > 5 |  |  | COc1cc2c(Nc3cnn(CC(=O)Nc4ccccc4)c3)ccnc2cc1OCC[C@H](N)C(=O)O [Example 23, (S)-2-Amino-4-[6-methoxy-4-(1-phenylcarbamoylmethyl-1H-pyrazol-4-ylamino)-quinolin-7-yloxy]-butyric acid] |  |
| 2 to 5 |  |  | COc1cc2c(Oc3ccc(NC(=O)c4ccc(OC(F)(F)F)cc4)cc3)ccnc2cc1OCC[C@H](N)C(=O)O [Example 71, (S)-2-Amino-4-{6-methoxy-4-[4-(4-trifluoromethoxy-benzoylamino)-phenoxy]-quinolin-7-yloxy}-butyric acid] |  |
| > 5 | 1 to 5 | > 5 | COc1cc2c(Oc3ccc(C(=O)Nc4ccccc4)cc3)ccnc2cc1OCC[C@H](N)C(=O)OC1CCCC1 [Example 77, (S)-2-Amino-4-[6-methoxy-4-(4-phenylcarbamoyl-phenoxy)-quinolin-7-yloxy]-butyric acid cyclopentyl ester] | 1 to 5 |
| 2 to 5 |  |  | COc1cc2c(Oc3ccc(NS(=O)(=O)c4ccccc4)cc3)ccnc2cc1OCC[C@H](N)C(=O)O [Example 74, (S)-2-Amino-4-[4-(4-benzenesulfonylamino-phenoxy)-6-methoxy-quinolin-7-yloxy]-butyric acid] |  |
|  | 1 to 5 | > 5 | COc1cc2c(Oc3ccc(NC(=O)c4ccccc4)cc3)ccnc2cc1OCC[C@H](NC1CCCCC1)C(=O)OC1CCCC1 [Example 39, (S)-4-[4-(4-Benzoylamino-phenoxy)-6-methoxy-quinolin-7-yloxy]-2-cyclohexylamino-butyric acid cyclopentyl ester] | > 5 |
|  | > 5 | > 5 | COc1cc2c(Nc3cnc(NC(=O)c4ccccc4)nc3)ncnc2cc1OCC[C@H](N)C(=O)OC1CCCC1 [Example 31, (S)-2-Amino-4-[4-(2-benzoylamino-pyrimidin-5-ylamino)-6-methoxy-quinazolin-7-yloxy]-butyric acid cyclopentyl ester] | > 5 |
|  | > 5 | > 5 | COc1cc2c(Nc3cnn(CC(=O)Nc4cccc(F)c4)c3)ccnc2cc1OCC[C@H](N)C(=O)OC1CCCC1 [Example 24, (S)-2-Amino-4-(4-{1-[(3-fluoro-phenylcarbamoyl)-methyl]-1H-pyrazol-4-ylamino}-6-methoxy-quinolin-7-yloxy)-butyric acid cyclopentyl ester] | > 5 |
|  | 1 to 5 | > 5 | COc1cc2c(Oc3cccc(F)c3)ccnc2cc1OCC[C@H](N)C(=O)OC1CCCC1 [Example 5, (S)-2-Amino-4-[4-(3-fluoro-phenoxy)-6-methoxy-quinolin-7-yloxy]-butyric acid cyclopentyl ester] | 1 to 5 |
|  | < 1 | 1 to 5 | CCN[C@@H](CCOc1cc2nccc(Oc3ccc(NC(=O)c4ccccc4)cc3)c2cc1OC)C(=O)OC1CCCC1 [Example 38, (S)-4-[4-(4-Benzoylamino-phenoxy)-6-methoxy-quinolin-7-yloxy]-2-ethylamino-butyric acid cyclopentyl ester] | 1 to 5 |
|  | 1 to 5 | > 5 | COc1ccc(Oc2ccnc3cc(OCC[C@H](N)C(=O)OC4CCCC4)c(OC)cc23)cc1 [Example 9, (S)-2-Amino-4-[6-methoxy-4-(4-methoxy-phenoxy)-quinolin-7-yloxy]-butyric acid cyclopentyl ester] | > 5 |
|  | < 1 | < 1 | COc1cc2c(Sc3ccc(NC(=O)Nc4ccc(C(F)(F)F)cc4)cc3)ccnc2cc1OCCC[C@@H](N)C(=O)OC1CCCC1 [Example 121, (R)-2-Amino-5-(6-methoxy-4-{4-[3-(4-trifluoromethyl-phenyl)-ureido]-phenylsulfanyl}-quinolin-7-yloxy)-pentanoic acid cyclopentyl ester] | < 1 |
|  | < 1 | < 1 | COc1cc2c(Oc3ccc(NC(=O)Nc4ccc(C(F)(F)F)cc4)cc3)ccnc2cc1OCC[C@@H](N)C(=O)OC1CCCC1 [Example 104, (R)-2-Amino-4-(6-methoxy-4-{4-[3-(4-trifluoromethyl-phenyl)-ureido]-phenoxy}-quinolin-7-yloxy)-butyric acid cyclopentyl ester] | < 1 |
|  | < 1 | < 1 | COc1cc2c(Oc3ccc(NC(=O)c4ccccc4)cc3)ccnc2cc1OCC1CCN(CC[C@H](N)C(=O)OC2CCCC2)CC1 [Example 136, (S)-2-Amino-4-{4-[4-(4-benzoylamino-phenoxy)-6-methoxy-quinolin-7-yloxymethyl]-piperidin-1-yl}-butyric acid cyclopentyl ester] | < 1 |
|  | 1 to 5 | > 5 | COc1cc2c(Nc3cc(C)[nH]n3)nc(Sc3ccccc3)nc2cc1OCC[C@H](N)C(=O)OC1CCCC1 [Example 143, (S)-2-Amino-4-[6-methoxy-4-(5-methyl-1H-pyrazol-3-ylamino)-2-phenylsulfanyl-quinazolin-7-yloxy]-butyric acid cyclopentyl ester] | 1 to 5 |
|  | < 1 | < 1 | COc1cc2c(Oc3ccc(NC(=O)c4cccs4)cc3)ccnc2cc1OCC[C@H](N)C(=O)OC1CCCC1 [Example 75, (S)-2-Amino-4-(6-methoxy-4-{4-[(thiophene-2-carbonyl)-amino]-phenoxy}-quinolin-7-yloxy)-butyric acid cyclopentyl ester] | < 1 |

Reference: patent US8148531B2 (Chroma Therapeutics Ltd., priority 2005, dated 2012)
